The values that follow are results of earlier work, collected in patent US20220117919A1, “ENHANCED BIOAVAILABILITY OF N-(2,6-BIS(1-METHYLETHYL)PHENYL)-N'-((1-(4-(DIMETHYLAMINO)-PHENYL)CYCLOPENTYL)METHYL)UREA HYDROCHLORIDE” (The Regents of the University of Michigan, priority 2015, published 2022).

This data set deals with adrenocortical carcinoma (ACC). The conditions noted are these: cited from earlier work.

Consider `Clc1ccc(C(c2ccccc2Cl)C(Cl)Cl)cc1` (centres unmarked) [mitotane], for which the “average delay of disease progression” value (ACC patients that derive a therapeutic benefit) is on record as “five”. The “share of patients with increased progression-free survival” value (ACC patients) is “one-quarter to one-third”.
